How the values were obtained:
[1] = tested on: I.C.R. Swiss albino mice; assay: Chemical analgesia, acetic acid writhing technique; format: in vivo; settings: for No. of writhes: 30 min before acetic acid, noted 20 min after, x ± S.E.M.; for analgesic activity compared with dextropropoxyphene (in words): acetic acid writhing, i.p.
Protocol: 2. Chemical analgesia The analgesic effect has been studied in I.C.R. Swiss albino mice, employing the acetic acid writhing technique. Batches of 10 mice were made.
The products studied were administered intraperitoneally, and after 30 minutes the mice were injected intraperitoneally with 0.25 ml of 1% acetic acid. A batch of control animals received only the acetic acid. Note was made of the number of writhes in each mouse 20 minutes following injection of the acetic acid.

[2] = Acute toxicity (LD50, Litchfield-Wilcoxon test, intraperitoneal); parameters: species or system I.C.R. Swiss albino mice; settings: mouse, in vivo, ip, mice, deaths noted 48 hours after treatment
Protocol: A--ACUTE TOXICITY Acute toxicity studies have been made in I.C.R. Swiss albino mice of both sexes of a weight of 30±2 g, kept without food for 24 hours prior to the experiment. Ambient temperature and relative humidity were held constant. The products were administered intraperitoneally, with the number of deaths noted 48 hours from the moment of treatment. Calculation of the lethal dose 50 (LD50) was made by the Litchfield-Wilcoxon test.

[3] = tested on: I.C.R. Swiss albino mice; assay: Thermal analgesia, 55° C. "hot plate" technique; format: in vivo; settings: for Jumping time: 30 min before 55° C. hot plate, x ± S.E.M.; for thermal analgesic activity (in words): hot plate, i.p.
Protocol: The thermal analgesic effect has been studied in I.C.R. Swiss albino mice. The 55° C. "hot plate" technique was used. Batches of 10 mice were made. The products in study were administered intraperitoneally and after 30 minutes the mice were placed on the hot plate and note was made, in seconds, of the time it took them to jump. Batches were made of control animals injected only with distilled water.

[4] = 30 mg/kg i.p., control 122.1 ± 9.15
[5] = 25 mg/kg i.p., control 30.9 ± 5.016
[6] = 25 mg/kg i.p., control 109.9 ± 6.362
[7] = 50 mg/kg i.p., control 48.8 ± 5.033

In the case of CN1CCC2(C)CC1Cc1sc3ccccc3c12 (racemic) [Product I, 2,5-dimethyl-benzo[b]thiene[3,2-f]morphan], the No. of writhes [1, 4] is reported as 44.3 ± 6.14, the “analgesic activity compared with dextropropoxyphene (in words)” value [1] is reported as “has analgesic activity, but of lesser intensity than that of dextropropoxyphene” and the LD50 at 48 h [2] is reported as 90.8 mg/kg. For the same molecule, the Jumping time [3, 5] was 48.9 ± 8.956 s and the “thermal analgesic activity (in words)” value [3] was “lacks any thermal analgesic activity”.

CCC(=O)O[C@](Cc1ccccc1)(c1ccccc1)[C@H](C)CN(C)C [Dextropropoxyphene, dextropropoxyphene, reference compound] gave a No. of writhes [1, 6] of 27.8 ± 8.365, a No. of writhes [1, 4] of 24 ± 6.03 and a Jumping time [3, 5] of 70.8 ± 13.592 s. It also gave a Jumping time [3, 7] of 91.3 ± 7.894 s.

With CC1=CCN(C)C(Cc2cc3ccccc3s2)C1 (centres unmarked) [Product II, 2-(2-benzo[b]thienylmethyl)-1,4-dimethyl-1,2,3,6-tetrahydropyridine] the No. of writhes [1, 6] was 41.2 ± 6.024, the “analgesic activity compared with dextropropoxyphene (in words)” value [1] was “not significantly different from that of dextropropoxyphene” and the LD50 at 48 h [2] was 916 mg/kg. For the same molecule, the Jumping time [3, 7] was 63 ± 8.368 s and the “thermal analgesic activity (in words)” value [3] was “lacks any thermal analgesic activity”.

— patent US4178450A, “2,5-Dimethyl-benzo(b) thiene (3,2-f) morphan and precursor thereof” (priority 1977, dated 1979)
